Test results as given in patent publication US20170325459A1, “BICYCLIC COMPOUNDS AS PEST CONTROL AGENTS” (Bayer CropScience Aktiengesellschaft, priority 2014, published 2017).

Columns and labels:
Myzus persicae = Myzus persicae spray test; type: in vivo; settings: Chinese cabbage leaf discs, after 6 days; for pest or weed control at 500 g/ha: Myzus persicae, foliar, 144 h, read-out: efficacy (aphids killed)
Protocol: Myzus persicae—Spray Test Solvent: 78 parts by weight of acetone • • 1.5 parts by weight of dimethylformamide Emulsifier: alkylaryl polyglycol ether To produce a suitable active ingredient formulation, 1 part by weight of active ingredient is dissolved using the specified parts by weight of solvent and made up with water containing an emulsifier concentration of 1000 ppm until the desired concentration is attained. To produce further test concentrations, the formulation is diluted with emulsifier-containing water. Discs of Chinese cabbage leaves (Brassica pekinensis) infested by all stages of the green peach aphid (Myzus persicae) are sprayed with an active ingredient formulation of the desired concentration. After 6 days, the efficacy in % is determined. 100% means that all the aphids have been killed and 0% means that none of the aphids have been killed.

Tetranychus urticae = Tetranychus urticae spray test, OP-resistant; type: in vivo; settings: application rate 500 g/ha, bean leaf discs, after 6 days
Protocol: Tetranychus urticae—Spray Test, OP-Resistant
(§1) Solvent: 78.0 parts by weight of acetone • • 1.5 parts by weight of dimethylformamide
(§2) Emulsifier: alkylaryl polyglycol ether
(§3) To produce a suitable active ingredient formulation, 1 part by weight of active ingredient is dissolved using the specified parts by weight of solvent and made up with water containing an emulsifier concentration of 1000 ppm until the desired concentration is attained. To produce further test concentrations, the formulation is diluted with emulsifier-containing water.
Discs of bean leaves (Phaseolus vulgaris) infested with all stages of the greenhouse red spider mite (Tetranychus urticae) are sprayed with an active ingredient formulation of the desired concentration.
After 6 days, the efficacy in % is determined. 100% meant that all the spider mites have been killed and 0% means that no spider mites have been killed.

[1] = log P by HPLC (OECD Guideline 117), method [a] acidic range pH 2.7; type: physicochemical; settings: for chromatographic logP: reversed-phase (RP) C18 HPLC column
Protocol: (§4) The log P values were determined in accordance with OECD Guideline 117 (EC Directive 92/69/EEC) by HPLC (high-performance liquid chromatography) using reversed-phase (RP) columns (C18), by the following methods: [a] The LC-MS determination in the acidic range is carried out at pH 2.7 with 0.1% aqueous formic acid and acetonitrile (contains 0.1% formic acid) as eluents; linear gradient from 10% acetonitrile to 95% acetonitrile. [b] LC-MS determination in the neutral range is effected at pH 7.8 with 0.001 molar aqueous ammonium hydrogencarbonate solution and acetonitrile as eluents; linear gradient from 10% acetonitrile to 95% acetonitrile. Calibration is effected using unbranched alkan-2-ones (having 3 to 16 carbon atoms) with known log P values (log P values determined on the basis of the retention times by linear interpolation between two successive alkanones).

[2] = log P by HPLC (OECD Guideline 117), method [b] neutral range pH 7.8; type: physicochemical; settings: for chromatographic logP: reversed-phase (RP) C18 HPLC column
Protocol: as §4

Phaedon cochleariae = Phaedon cochleariae spray test; type: in vivo; settings: application rate 500 g/ha, Chinese cabbage leaf discs, after 7 days
Protocol: Phaedon cochleariae—Spray Test
as §1, §2, §3
After 7 days, the efficacy in % is determined. 100% means that all the beetle larvae have been killed and 0% means that none of the beetle larvae have been killed.

Boophilus microplus = Boophilus microplus injection test; type: in vivo; settings: application rate 20 μg/animal, injection into engorged adult female cattle ticks, assessed after 7 days
Protocol: Boophilus microplus—Injection Test Solvent: dimethyl sulphoxide To produce a suitable active ingredient formulation, 10 mg of active ingredient are mixed with 0.5 ml of solvent and the concentrate is diluted to the desired concentration with solvent. 1 μl of the active ingredient solution is injected into the abdomen of 5 engorged adult female cattle ticks (Boophilus microplus). The animals are transferred into dishes and kept in a climate-controlled room. Efficacy is assessed after 7 days by laying of fertile eggs. Eggs which are not visibly fertile are stored in a climate-controlled cabinet until the larvae hatch after about 42 days. An efficacy of 100% means that none of the ticks has laid any fertile eggs; 0% means that all the eggs are fertile.

Row | logP[a] [1] | logP[b] [2] | chromatographic logP [1] | chromatographic logP [2] | SMILES | efficacy (aphids killed) (Myzus persicae; application rate 500 g/ha) [%] | pest or weed control at 500 g/ha (Myzus persicae; application rate 500 g/ha) [%] | other results
1 | – | – | 4.27 | 4.41 | Cc1cccc(-c2ccc3nc(-c4cccnc4)sc3c2)c1 [compound 3, 6-(3-Methylphenyl)-2-(pyridin-3-yl)-1,3-benzothiazole] | – | 90 | –
2 | 4.25 | 4.43 | – | – | Cc1ccc(-c2ccc3nc(-c4cccnc4)sc3c2)cc1 [compound 4] | 100 | – | –
3 | – | – | 4.32 | 4.49 | Clc1cccc(-c2ccc3nc(-c4cccnc4)sc3c2)c1 [compound 7] | – | 100 | efficacy (beetle larvae killed) (Phaedon cochleariae): 83%
4 | 4.43 | – | – | – | Clc1ccc(-c2ccc3nc(-c4cccnc4)sc3c2)cc1 [compound 8] | – | – | efficacy (beetle larvae killed) (Phaedon cochleariae): 83%
5 | – | – | 5.22 | 5.24 | Cc1cc(C)c(-c2ccc3nc(-c4cccnc4)sc3c2)cc1SCC(F)(F)F [compound 9, 6-{2,4-Dimethyl-5-[(2,2,2-trifluoroethyl)sulphanyl]phenyl}-2-(pyridin-3-yl)-1,3-benzothiazole] | – | 90 | –
6 | – | – | 3.45 | 3.4 | Cc1cc(C)c([S+]([O-])CC(F)(F)F)cc1-c1ccc2nc(-c3cccnc3)sc2c1 (stereo not drawn) [compound 10, 6-{2,4-Dimethyl-5-[(2,2,2-trifluoroethyl)sulphinyl]phenyl}-2-(pyridin-3-yl)-1,3-benzothiazole] | – | 90 | –
7 | – | – | 4.96 | 4.97 | Cc1cc(F)c(-c2ccc3nc(-c4cccnc4)sc3c2)cc1SCC(F)(F)F [compound 11, 6-{2-Fluoro-4-methyl-5-[(2,2,2-trifluoroethyl)sulphanyl]phenyl}-2-(pyridin-3-yl)-1,3-benzothiazole] | – | 90 | –
8 | – | – | 3.33 | 3.33 | Cc1cc(F)c(-c2ccc3nc(-c4cccnc4)sc3c2)cc1[S+]([O-])CC(F)(F)F (stereo not drawn) [compound 12, 6-{2-Fluoro-4-methyl-5-[(2,2,2-trifluoroethyl)sulphinyl]phenyl}-2-(pyridin-3-yl)-1,3-benzothiazole] | – | 90 | –
9 | – | – | – | 1.64 | c1cncc(-c2nc3ccc(-n4ccnc4)cc3s2)c1 [compound 25, 6-(1H-Imidazol-1-yl)-2-(pyridin-3-yl)-1,3-benzothiazole] | – | 90 | efficacy (laying of fertile eggs) (Boophilus microplus): 80%
10 | – | – | – | 3.46 | FC(F)(F)c1ccn(-c2ccc3nc(-c4cccnc4)sc3c2)n1 [compound 28, 2-(Pyridin-3-yl)-6-[3-(trifluoromethyl)-1H-pyrazol-1-yl]-1,3-benzothiazole] | – | 100 | efficacy (laying of fertile eggs) (Boophilus microplus): 80%
11 | – | – | – | 2 | c1cnc(-c2ccn(-c3ccc4nc(-c5cccnc5)sc4c3)n2)nc1 [compound 30, 2-(Pyridin-3-yl)-6-[3-(pyrimidin-2-yl)-1H-pyrazol-1-yl]-1,3-benzothiazole] | – | 90 | –
12 | – | – | 1.32 | 1.51 | C[S+]([O-])Cn1cc(-c2ccc3nc(-c4cccnc4)sc3c2)cn1 (stereo not drawn) [compound 39, 6-{1-[(Methylsulphinyl)methyl]-1H-pyrazol-4-yl}-2-(pyridin-3-yl)-1,3-benzothiazole] | – | 100 | –
13 | 2.62 | 2.71 | – | – | Cc1cnn(-c2ccc3nc(-c4cccnc4)sc3c2)c1 [compound 45] | 90 | – | –
14 | 1.35 | 1.49 | – | – | Cn1cnn(-c2ccc3nc(-c4cccnc4)sc3c2)c1=S [compound 46] | 90 | – | –
15 | – | – | 1.79 | 1.84 | Cn1c(=O)cnn(-c2ccc3nc(-c4cccnc4)sc3c2)c1=O [compound 56, 4-Methyl-2-[2-(pyridin-3-yl)-1,3-benzothiazol-6-yl]-1,2,4-triazine-3,5(2H,4H)-dione] | – | 90 | –

More lines, now with the values behind:

Row | SMILES | logP[a] [1] | logP[b] [2] | chromatographic logP [1] | chromatographic logP [2] | efficacy (aphids killed) (Myzus persicae; application rate 500 g/ha) [%] | pest or weed control at 500 g/ha (Myzus persicae; application rate 500 g/ha) [%] | other results
16 | Cc1ccccc1-c1ccc2nc(-c3cccnc3)sc2c1 [compound 2] | 4.08 | 4.24 | – | – | 100 | – | efficacy (spider mites killed) (Tetranychus urticae): 90%
17 | FC(F)(F)CNc1ccc2nc(-c3cccnc3)sc2c1 [compound 13, 2-(Pyridin-3-yl)-N-(2,2,2-trifluoroethyl)-1,3-benzothiazol-6-amine] | – | – | 2.36 | 2.47 | – | 90 | –
18 | Cc1cc(C)c(SCC(F)(F)F)cc1Nc1ccc2nc(-c3cccnc3)sc2c1 [compound 18, N-{2,4-Dimethyl-5-[(2,2,2-trifluoroethyl)sulphanyl]phenyl}-2-(pyridin-3-yl)-1,3-benzothiazol-6-amine] | – | – | 4.45 | 4.51 | – | 90 | –
19 | Cc1cc(F)c(Nc2ccc3nc(-c4cccnc4)sc3c2)cc1SCC(F)(F)F [compound 20, N-{2-Fluoro-4-methyl-5-[(2,2,2-trifluoroethyl)sulphanyl]phenyl}-2-(pyridin-3-yl)-1,3-benzothiazol-6-amine] | – | – | 4.18 | 4.22 | – | 90 | –
20 | FC(F)(F)c1cnn(-c2ccc3nc(-c4cccnc4)sc3c2)c1 [compound 27] | – | 3.42 | – | – | 90 | – | –
21 | Cn1c(=O)n(C)n(-c2ccc3nc(-c4cccnc4)sc3c2)c1=O [compound 47] | 1.52 | 1.63 | – | – | 100 | – | –
22 | Cc1nn(-c2ccc3nc(-c4cccnc4)sc3c2)c(=O)n1C [compound 48] | 1.66 | 1.81 | – | – | 90 | – | –
23 | Cc1nn(-c2ccc3nc(-c4cccnc4)sc3c2)c(=S)n1C [compound 49] | 1.41 | 1.58 | – | – | 90 | – | –
24 | CSc1nn(-c2ccc3nc(-c4cccnc4)sc3c2)c(=O)n1C [compound 51] | 2.43 | 2.56 | – | – | 100 | – | –
25 | CS(=O)(=O)CCNC(=O)c1ccc2nc(-c3cccnc3)sc2c1 [compound 71, N-[2-(Methylsulphonyl)ethyl]-2-(pyridin-3-yl)-1,3-benzothiazole-6-carboxamide] | – | – | 1.19 | – | – | 100 | –
26 | CSCCC(=O)N(C)c1ccc2nc(-c3cccnc3)sc2c1 [compound 78] | 2.08 | – | – | – | 100 | – | –
27 | CSCCC(=O)N(C)c1ccc2nc(-c3cncc(F)c3)sc2c1 [compound 79] | 2.64 | – | – | – | 100 | – | –
28 | CS(=O)(=O)CCC(=O)Nc1ccc2nc(-c3cccnc3)sc2c1 [compound 80] | 1.22 | – | – | – | – | – | efficacy (aphids killed) (Myzus persicae; application rate 20 g/ha): 100%
29 | CN(C(=O)C1CCS(=O)(=O)C1)c1ccc2nc(-c3cccnc3)sc2c1 (stereo not drawn) [compound 82] | 1.49 | – | – | – | 90 | – | –
